From PubChem BioAssay AID2060909 (Molecular Pharmacology Branch, DTP, NCI, 2025)

Test system: 362531-283-R-J2-PDC complex spheroid viability
Assay: Anticancer human tumor 362531-283-R-J2-PDC patient-derived colon adenocarcinoma cell line growth inhibition [RAS]
Conditions: for viability, T/C: stronger effect = lower value; active = viability on the fitted dose curve at most 10% of control; inactive = the rest
How it was run: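 Multi-cell-type spheroids: tumor cells plus HUVEC endothelial cells and mesenchymal stem cells. RAS-pathway inhibitors were combined with targeted agents, each dosed in half-log steps down from clinical Cmax, or from 10 microM when Cmax was unknown.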

[1] = curve of first compound, second compound 0.000949 µM
[2] = curve of first compound, second compound 0.003 µM
[3] = curve of first compound, second compound 0.00949 µM
[4] = curve of first compound, second compound 0.03 µM
[5] = curve of first compound, second compound 0.0949 µM
[6] = curve of first compound, second compound 0.3 µM
[7] = second compound 0.000949 µM, first compound 0.0316 µM
[8] = second compound 0.000949 µM, first compound 0.1 µM
[9] = second compound 0.000949 µM, first compound 0.316 µM
[10] = second compound 0.000949 µM, first compound 1 µM
[11] = second compound 0.000949 µM, first compound 3.16 µM
[12] = second compound 0.000949 µM, first compound 10 µM
[13] = second compound 0.003 µM, first compound 0.0316 µM
[14] = second compound 0.003 µM, first compound 0.1 µM
[15] = second compound 0.003 µM, first compound 0.316 µM
[16] = second compound 0.003 µM, first compound 1 µM
[17] = second compound 0.003 µM, first compound 3.16 µM
[18] = second compound 0.003 µM, first compound 10 µM
[19] = second compound 0.00949 µM, first compound 0.0316 µM
[20] = second compound 0.00949 µM, first compound 0.1 µM
[21] = second compound 0.00949 µM, first compound 0.316 µM
[22] = second compound 0.00949 µM, first compound 1 µM
[23] = second compound 0.00949 µM, first compound 3.16 µM
[24] = second compound 0.00949 µM, first compound 10 µM
[25] = second compound 0.03 µM, first compound 0.0316 µM
[26] = second compound 0.03 µM, first compound 0.1 µM
[27] = second compound 0.03 µM, first compound 0.316 µM
[28] = second compound 0.03 µM, first compound 1 µM
[29] = second compound 0.03 µM, first compound 3.16 µM
[30] = second compound 0.03 µM, first compound 10 µM
[31] = second compound 0.0949 µM, first compound 0.0316 µM
[32] = second compound 0.0949 µM, first compound 0.1 µM
[33] = second compound 0.0949 µM, first compound 0.316 µM
[34] = second compound 0.0949 µM, first compound 1 µM
[35] = second compound 0.0949 µM, first compound 3.16 µM
[36] = second compound 0.0949 µM, first compound 10 µM
[37] = second compound 0.3 µM, first compound 0.0316 µM
[38] = second compound 0.3 µM, first compound 0.1 µM
[39] = second compound 0.3 µM, first compound 0.316 µM
[40] = second compound 0.3 µM, first compound 1 µM
[41] = second compound 0.3 µM, first compound 3.16 µM
[42] = second compound 0.3 µM, first compound 10 µM
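Also: spheroids exposed to the agents for 7 days before readout.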
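For viability, T/C in this document: luminescence viability as percent of DMSO vehicle control wells.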

C[C@@H](NC(=O)c1ncnc(N)c1Cl)c1ncc(C(=O)Nc2cc(C(F)(F)F)c(Cl)cn2)s1 + CCn1c(-c2cc(N3CCN(C)CC3)cnc2C(C)OC)c2c3cc(ccc31)-c1csc(n1)CC(NC(=O)C1CC1C)C(=O)N1CCCC(N1)C(=O)OCC(C)(C)C2
> 10 µM: IC50 [1] | IC50 [2] | IC50 [3] | IC50 [4] | IC50 [5]
inactive: viability, T/C [7] 107% | viability, T/C [8] 110% | viability, T/C [9] 94.3% | viability, T/C [10] 103% | viability, T/C [11] 96.1% | viability, T/C [12] 78.5% | viability, T/C [13] 106% | viability, T/C [14] 104% | viability, T/C [15] 93.3% | viability, T/C [16] 94.3% | viability, T/C [17] 85.6% | viability, T/C [18] 69.6% | viability, T/C [19] 94% | viability, T/C [20] 100% | viability, T/C [21] 95.9% | viability, T/C [22] 96.9% | viability, T/C [23] 86.3% | viability, T/C [24] 66% | viability, T/C [25] 107% | viability, T/C [26] 92.6% | viability, T/C [27] 91.7% | viability, T/C [28] 92% | viability, T/C [29] 78% | viability, T/C [30] 62.1% | viability, T/C [31] 79.3% | viability, T/C [32] 87% | viability, T/C [33] 78.7% | viability, T/C [34] 73.7% | viability, T/C [35] 76.2% | viability, T/C [36] 62.5% | viability, T/C [37] 56.6% | viability, T/C [38] 56.2% | viability, T/C [39] 58.5% | viability, T/C [40] 59.9% | viability, T/C [41] 72% | viability, T/C [42] 26.3%
3.74 µM: IC50 [6]

CC1(O)CCCC1n1c(=O)c(C(F)F)cc2cnc(NC3CCN(S(C)(=O)=O)CC3)nc21 (configuration not stated) + CCn1c(-c2cccnc2C(C)OC)c2c3cc(ccc31)N1CCOC(CC(NC(=O)C(C(C)C)N(C)C(=O)C3(F)CCN(C(=O)C#CC(C)(C)N(C)C)CC3)C(=O)N3CCCC(N3)C(=O)OCC(C)(C)C2)C1
6.21 µM: IC50 [2]
inactive: viability, T/C [7] 97.1% | viability, T/C [8] 113% | viability, T/C [9] 92.2% | viability, T/C [10] 70% | viability, T/C [11] 55% | viability, T/C [12] 73.7% | viability, T/C [13] 102% | viability, T/C [14] 92.1% | viability, T/C [15] 89.8% | viability, T/C [16] 72% | viability, T/C [17] 57.9% | viability, T/C [18] 44.6% | viability, T/C [19] 108% | viability, T/C [20] 110% | viability, T/C [21] 84% | viability, T/C [22] 72.4% | viability, T/C [23] 50.5% | viability, T/C [24] 53.9% | viability, T/C [25] 103% | viability, T/C [26] 97% | viability, T/C [27] 77.7% | viability, T/C [28] 63% | viability, T/C [29] 63.9% | viability, T/C [30] 38.9% | viability, T/C [31] 102% | viability, T/C [32] 91% | viability, T/C [33] 94.5% | viability, T/C [34] 58.9% | viability, T/C [35] 53.9% | viability, T/C [36] 54.7% | viability, T/C [37] 100% | viability, T/C [38] 87.4% | viability, T/C [39] 87.7% | viability, T/C [40] 66% | viability, T/C [41] 56.9% | viability, T/C [42] 51.4%
4.98 µM: IC50 [4]
> 10 µM: IC50 [1] | IC50 [3] | IC50 [5] | IC50 [6]

C[C@@H](NC(=O)c1ncnc(N)c1Cl)c1ncc(C(=O)Nc2cc(C(F)(F)F)c(Cl)cn2)s1
> 10 µM: IC50 (curve of compound)
inactive: viability, T/C (compound 0.0316 µM) 97.4% [middle of 4 runs] | viability, T/C (compound 0.1 µM) 102% [middle of 4 runs] | viability, T/C (compound 1 µM) 95.7% [middle of 4 runs] | viability, T/C (compound 3.16 µM) 93.9% [middle of 4 runs] | viability, T/C (compound 10 µM) 75.5% [middle of 4 runs]

CCn1c(-c2cc(N3CCN(C)CC3)cnc2C(C)OC)c2c3cc(ccc31)-c1csc(n1)CC(NC(=O)C1CC1C)C(=O)N1CCCC(N1)C(=O)OCC(C)(C)C2 (configuration not stated)
inactive: viability, T/C (compound 0.000949 µM) 99% [middle of 8 runs] | viability, T/C (compound 0.003 µM) 101% [middle of 8 runs] | viability, T/C (compound 0.00949 µM) 100% [middle of 8 runs] | viability, T/C (compound 0.03 µM) 99.5% [middle of 8 runs] | viability, T/C (compound 0.0949 µM) 82.8% [middle of 7 runs] | viability, T/C (compound 0.3 µM) 38.5% [middle of 8 runs]
223 nM [middle of 8 runs]: IC50 (compound alone, run of 07/09/2024)

O=C(c1ccc(F)c(F)c1Nc1ccc(I)cc1F)N1CC(O)([C@@H]2CCCCN2)C1
507 nM [middle of 4 runs]: IC50 (curve of compound)
inactive: viability, T/C (compound 0.00316 µM) 100% [middle of 4 runs] | viability, T/C (compound 0.01 µM) 94.8% [middle of 4 runs] | viability, T/C (compound 0.1 µM) 90.7% [middle of 4 runs] | viability, T/C (compound 0.316 µM) 64.7% [middle of 4 runs]
19% [middle of 4 runs]: viability, T/C (compound 1 µM)

CC(C)NCC(C(=O)N1CCN(c2ncnc3c2C(C)CC3O)CC1)c1ccc(Cl)cc1 (configuration not stated) + CCn1c(-c2cc(N3CCN(C)CC3)cnc2C(C)OC)c2c3cc(ccc31)-c1csc(n1)CC(NC(=O)C1CC1C)C(=O)N1CCCC(N1)C(=O)OCC(C)(C)C2
> 10 µM: IC50 [1] | IC50 [2] | IC50 [3] | IC50 [4] | IC50 [5]
inactive: viability, T/C [7] 103% | viability, T/C [8] 103% | viability, T/C [9] 101% | viability, T/C [10] 99.5% | viability, T/C [11] 92.7% | viability, T/C [12] 89.7% | viability, T/C [13] 95.6% | viability, T/C [14] 109% | viability, T/C [15] 97.8% | viability, T/C [16] 98.7% | viability, T/C [17] 106% | viability, T/C [18] 100% | viability, T/C [19] 103% | viability, T/C [20] 110% | viability, T/C [21] 89.7% | viability, T/C [22] 99% | viability, T/C [23] 93.6% | viability, T/C [24] 93.2% | viability, T/C [25] 99.4% | viability, T/C [26] 83.8% | viability, T/C [27] 84.1% | viability, T/C [28] 87.8% | viability, T/C [29] 92.6% | viability, T/C [30] 85.7% | viability, T/C [31] 81.8% | viability, T/C [32] 101% | viability, T/C [33] 86.1% | viability, T/C [34] 72.3% | viability, T/C [35] 76.4% | viability, T/C [36] 65.4% | viability, T/C [37] 46.8% | viability, T/C [38] 53.9% | viability, T/C [39] 42.6% | viability, T/C [40] 41.6% | viability, T/C [41] 31% | viability, T/C [42] 33.5%
< 0.0316 µM: IC50 [6]

CC(C)NCC(C(=O)N1CCN(c2ncnc3c2C(C)CC3O)CC1)c1ccc(Cl)cc1 (configuration not stated) + CCn1c(-c2cccnc2C(C)OC)c2c3cc(ccc31)N1CCOC(CC(NC(=O)C(C(C)C)N(C)C(=O)C3(F)CCN(C(=O)C#CC(C)(C)N(C)C)CC3)C(=O)N3CCCC(N3)C(=O)OCC(C)(C)C2)C1
> 10 µM: IC50 [1] | IC50 [2] | IC50 [3] | IC50 [4] | IC50 [5] | IC50 [6]
inactive: viability, T/C [7] 97.8% | viability, T/C [8] 106% | viability, T/C [9] 91.4% | viability, T/C [10] 94.4% | viability, T/C [11] 101% | viability, T/C [12] 93.5% | viability, T/C [13] 103% | viability, T/C [14] 105% | viability, T/C [15] 94.4% | viability, T/C [16] 92.9% | viability, T/C [17] 94.1% | viability, T/C [18] 101% | viability, T/C [19] 92.9% | viability, T/C [20] 100% | viability, T/C [21] 95% | viability, T/C [22] 98.8% | viability, T/C [23] 98.3% | viability, T/C [24] 99% | viability, T/C [25] 104% | viability, T/C [26] 87.4% | viability, T/C [27] 96.7% | viability, T/C [28] 86.2% | viability, T/C [29] 97.3% | viability, T/C [30] 100% | viability, T/C [31] 92.2% | viability, T/C [32] 91.1% | viability, T/C [33] 103% | viability, T/C [34] 88.1% | viability, T/C [35] 94.9% | viability, T/C [36] 94.3% | viability, T/C [37] 90.8% | viability, T/C [38] 94.1% | viability, T/C [39] 97.8% | viability, T/C [40] 91.9% | viability, T/C [41] 98.9% | viability, T/C [42] 92%
